Marks after values point to notes of the source that are not given here.
How the values were obtained:
A2058 = test: Annexin V-FITC/PI staining, flow cytometry; assay type: cell-based, human; conditions: 48 h at EC50
Source text: (§1) To discern whether cell death triggered by OOPs treatment occurred via apoptosis or necrosis under the experimental conditions applied in this study, live cells treated with OOPs were stained simultaneously with FITC-conjugated annexin V and propidium iodide (PI). Annexin V binds to phosphatidylserine (PS) translocating from the inner to the outer leaflet of the plasma membrane in apoptotic cells. Therefore, annexin V-FITC binding to PS labels live apoptotic cells with green FL. […] PS exposure to the extracellular space and cell membrane permeability were analyzed by flow cytometry as described in detail in the Experimental Section. […] OOP concentrations used were equal to the EC50 values for each cell line (Table 1). annexin V and PI staining discriminated between early- (i.e., annexin V +ve and PI −ve) and late-apoptotic cells (i.e., annexin V +ve and PI +ve), as well as between necrotic (i.e., annexin V −ve and PI +ve) and live (i.e., annexin V −ve and PI −ve) cells (Table 4).
(§2) Apoptosis and necrosis were assessed by double staining with annexin V-FITC and propidium iodide (PI) and were analyzed using flow cytometry (FACS). Human cancer cells were plated in 96-well culture plates in 100 μL of complete medium and were allowed to adhere overnight (~16 h). […] In detail, 0.5 μL of a 500× stock of each tested compound in DMSO was added directly into each well in a final volume of 250 μL culture medium and was gently mixed by pipetting. Control wells were prepared under the same experimental conditions by adding only DMSO at a final concentration of 0.2% (v/v). At the end of the treatment, the cells were detached by trypsinization, media with serum was added to deactivate trypsin, and the cells from three wells were pooled together by centrifugation (1000 rpm, 5 min, 24 °C), washed with cold PBS, centrifuged (1000 rpm, 5 min, 24 °C) and finally resuspended in cold 1× annexin V binding buffer (10 mM HEPES pH = 7.4, 150 mM NaCl, 2.5 mM CaCl2) at a density of 10^4 cells/mL. Staining was performed by incubating with annexin V- FITC and propidium iodide (PI; BioLegend) for 15 min at room temperature in the dark, according to the manufacturer’s instructions. Negative control samples consisted of cells treated only with 0.2% (v/v) DMSO for the same incubation time length (i.e., 48 h). Cells treated with Triton X-100 (0.25% (v/v)) for 5 min at 4 °C were used as controls for 100% permeabilization of the plasma membrane and maximum fluorescence staining with PI (positive control for cells in necrosis). The presence of live, apoptotic or necrotic cells was assessed with the FACS Calibur (Becton–Dickinson, San Jose, CA, USA). In total, 10,000 cells were analyzed per measurement and the acquired data were analyzed using the FlowJo V.10.0.8 software (Tree Star Inc., Ashland, OR, USA). Each condition was analyzed in duplicate, and the results presented are from 2 or 3 independent experiments.
(§3) Data showing OOPs’ apoptotic/necrotic effect were derived from two or three independent experiments and were presented as the means ± SE of the percentage (%) of both annexin V-positive cells (early apoptotic events) and % of annexin V/PI positive cells (late apoptotic events) over the whole cell population normalized to the corresponding events of the control cells, as determined using the FlowJo software.

HT-29 = test: Annexin V-FITC/PI staining, flow cytometry; assay type: cell-based, human; conditions: 48 h at EC50
Source text: as §1, §2, §3

MCF-7 = test: Annexin V-FITC/PI staining, flow cytometry; assay type: cell-based, human; conditions: 48 h at EC50
Source text: as §1, §2, §3

A375 cells = system: A375 cells; set-up: method as in PMID 35630786; conditions: 72 h treatment; cited from earlier work

SMILES	% Cell Viability (A2058)	Early Apoptotic (% ± S.D.) (A2058)	Late Apoptotic (% ± S.D.) (A2058)	Total Apoptotic (%) (A2058)	% Cell Viability (HT-29)	Early Apoptotic (% ± S.D.) (HT-29)	Late Apoptotic (% ± S.D.) (HT-29)	Total Apoptotic (%) (HT-29)	% Cell Viability (MCF-7)	Early Apoptotic (% ± S.D.) (MCF-7)	Late Apoptotic (% ± S.D.) (MCF-7)	Total Apoptotic (%) (MCF-7)	EC50 (A375 cells)
COC(=O)C1=COC(C)[C@@H](C=O)[C@@H]1CC(=O)OCCc1ccc(O)c(O)c1 (mixture of isomers) [3a,b, oleuropein aglycone]	24%	11.88 ± 2.3%	7.26 ± 1.6%	19.14 ± 0.7%	41 ^a %	6.95 ± 1.5%	1.55 ± 1.5%	8.50 ± 1.8 ^a %	69%	7.03 ± 0.3%	1.29 ± 0.8%	8.31 ± 1.2%	–
C/C=C(/C=O)[C@@H](CC=O)CC(=O)OCCc1ccc(O)cc1 [compound 1, oleocanthal]	36%	5.05 ± 2.7%	2.35 ± 1.7%	7.40 ± 4.4%	66%	5.53 ± 1.1%	6.10 ± 4.3%	–	65%	6.30 ± 2.3%	3.77 ± 0.8%	10.07 ± 3.1%	67.5 ± 1.9 µM
C/C=C(/C=O)[C@@H](CC=O)CC(=O)OCCc1ccc(O)c(O)c1 [compound 2, oleacein]	–	–	–	–	–	–	–	–	–	–	–	–	113 ± 4.9 µM

— article PMC9820430, “New Affordable Methods for Large-Scale Isolation of Major Olive Secoiridoids and Systematic Comparative Study of Their Antiproliferative/Cytotoxic Effect on Multiple Cancer Cell Lines of Different Cancer Origins” (International Journal of Molecular Sciences, 2022)
